Measurements published in US6369075B1, “7[4′-trifluoromethyl-biphenyl-2-carbonyl)amino]-quinoline-3-carboxylic acid amides, and method of inhibiting the secretion of apolipoprotein B” (Pfizer, Inc., priority 1999, dated 2002).

Which melting point does the source give for `CCS(=O)(=O)O.CCS(=O)(=O)O.O=C(N[C@@H](c1ccccc1)c1ccccn1)c1cnc2cc(NC(=O)c3ccccc3-c3ccc(C(F)(F)F)cc3)ccc2c1` [Example 2D, (S)-7-[(4′-Trifluoromethyl-biphenyl-2-carbonyl)-amino]-quinoline-3-carboxylic acid (phenyl-pyridin-2-yl-methyl)-amide, bis-ethanesulfonate] here?
The melting point was 158 °C.
